“Also recorded” adds a separate entry of the source.
Columns and labels:
[1] = system: nicotinic receptors in brain; type: binding, mouse
[2] = system: nicotinic receptors of striatum membrane preparations; type: binding, mouse
[3] = system: nicotinic acetylcholine receptors (nAChR) of striatal synaptosomes; type: biochemical, mouse
cFos expression = details: mouse, in vivo
[4] = system: nAChRs containing the α6 subunit (brain sections); type: binding, mouse

Q: How did the “number of sites with high affinity for the ligand” value [1] turn out when `O=c1cccc2n1C[C@@H]1CNC[C@H]2C1` [cytisine] was run?
A: reduction; also recorded: no other difference could be detected

Q: For `Clc1ccc(C2CC3CCC2N3)cn1` (stereo not drawn) [epibatidine], which “number of sites with high affinity for the ligand” value [1] is on record?
A: reduction; also recorded: no other difference could be detected

Q: And the “total number of epibatidine sites” value [2]?
A: could not show a reduction

Q: What does the source list for `CN1CCCC1c1cccnc1` (stereo not drawn) [nicotine]?
A: number of sites with high affinity for the ligand [1]: reduction; also recorded: no other difference could be detected; change in the affinity of the dopamine release response to nicotine (dose-response curve) [3]: loss of affinity of an order of magnitude; also recorded: drop of one order of magnitude; dopamine release peak induced by nicotine [3]: 50%; effect of nicotine on dopamine release [3]: completely absent; increase in dopamine release over the basal level [3]: about 100%; activation of cFos expression in response to nicotine (cFos expression): absence of activation

Q: With α-Conotoxin MII [αCtxMII] as the compound, how does the “binding sites on brain sections” value [4] read?
A: presence of binding sites in three major anatomical systems

Q: What about the “high affinity binding sites for the toxin” value [4] of the same compound?
A: complete disappearance

Q: And the “sites sensitive to αCtxMII as share of the total number of epibatidine sites” value [2]?
A: 20%

Q: What about the “sites with high and low affinity for αCtxMII” value [2] of the same compound?
A: total disappearance

Q: What about the “DA release peak induced by nicotine above the basal level in presence of αCtxMII” value [3] of the same compound?
A: 50%

Q: For α-bungarotoxin, which “ligand bond (distribution of binding sites) in mutants versus Wt” value [1] is on record?
A: not modified

— US7820876B2 (priority 2000, dated 2010)
